Patent publication US20110038885A1, “CHEMOKINE ANALOGS” (priority 2007, published 2011)
Bridge positions count the residues as written; N and C are the ends. Peptide text beside a SMILES is read from it.

Legend:
MCP-1 = assay: In vitro chemotaxis (trans-well migration) v MCP-1; type: cell-based, human
In short: (§1)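 Trans-well migration toward IL-8 or MCP-1 placed below, with agent added to THP-1 cells (10^4-10^6) in the top well and incubation at 37° C (e.g. 4 hours). MTT absorbance at 595 nm, interpolated on a cell standard curve, gives migrated cell numbers; TGFβ-type negative control and cytotoxicity check included.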

IL-8 = assay: In vitro chemotaxis, inhibition v IL-8; type: cell-based, human; design: concentration or dose not given beside the values
In short: as §1

[1] = Half-life in rat plasma in vitro; type: in vitro ADME; settings: read-out: T ½ rat plasma in vitro (converted)
Half-life in rat in vivo = settings: read-out: T ½ rat in vivo

EC50 (MCP-1) | half-life [1] | half-life (Half-life in rat in vivo) | SMILES | v IL-8 inhibition (%) (IL-8)
20 nM | > 900 min | 6 min | CC[C@H](C)[C@@H]1NC(=O)[C@H](Cc2c[nH]c3ccccc23)NC(=O)[C@H](CCCCN)NC(=O)[C@H](CCC(N)=O)NC(=O)[C@H](CCCCN)NC(=O)[C@@H]2CCCN2C(=O)[C@H](CC(=O)O)NC(=O)[C@H](CC(C)C)NC(=O)[C@@H](N)CSSC[C@@H](C(N)=O)NC(=O)[C@H](CCC(N)=O)NC1=O [Example 33, c(Cys-Leu-Asp-Pro-Lys-Gln-Lys-Trp-Ile-Gln-Cys)-NH2] (H-CLDPKQKWIQC-NH2; disulfide 1-11) | 90.0%
20 nM | 666 min | 33 min | CC(C)[C@H](NC(=O)[C@H](Cc1c[nH]c2ccccc12)NC(=O)OC(C)(C)C)C(=O)NC1CCC(=O)NC1=O (stereo partly drawn) [Example 164, BOC-Trp-Val-α-aminoglutaramide] | 104.4%
